Experimental data reported in ChEMBL document CHEMBL5724914, “Linking interpersonal differences in gut microbiota composition and drug biotransformation activity” (2024).

How the values were obtained:
[1] = (§1) The drug is tested on WLS-220 corresponding to human gut metagenome with ENA study accession number: PRJEB37062 and ENA sample accession number: ERS12561769 for biotransformation under anaerobic condition. The drug concentrations were measured over 9 timepoints collected between 0 and 24 hours of incubation by liquid-chromatography-coupled mass spectrometry (LC–MS); conditions: 2 µM
[2] = as §1, with “WLS-027” for “WLS-220”, “ERS12561744” for “ERS12561769”; conditions: 2 µM
[3] = as §1, with “WLS-010” for “WLS-220”, “ERS12561743” for “ERS12561769”; conditions: 2 µM
[4] = as §1, with “WLS-006” for “WLS-220”, “ERS12561741” for “ERS12561769”; conditions: 2 µM
[5] = human gut metagenome, 24 h, 2 µM
[6] = human gut metagenome, 24 h, 2 µM; remark: listed apart in the source
[7] = human gut metagenome, 24 h, 2 µM; remark: listed apart in the source
[8] = human gut metagenome, 24 h, 2 µM; remark: listed apart in the source
[9] = human gut metagenome, 24 h, 2 µM; remark: listed apart in the source
Note: call rule not given here.

Structure (SMILES)	Bacterial Biotransformation [1]	Bacterial Biotransformation [2]	Bacterial Biotransformation [3]	Bacterial Biotransformation [4]	Bacterial Biotransformation [5]	Bacterial Biotransformation [6]	Bacterial Biotransformation [7]	Bacterial Biotransformation [8]	Bacterial Biotransformation [9]
CCCCCNC(=N)N/N=C/c1c[nH]c2ccc(OC)cc12.O=C(O)/C=C\C(=O)O [TEGASEROD MALEATE]	Compound NOT metabolized	Compound NOT metabolized	Compound NOT metabolized	Compound NOT metabolized	Compound NOT metabolized	Compound NOT metabolized	Compound NOT metabolized	Compound NOT metabolized	Compound NOT metabolized
CC(C)(C)N.CCC[C@H](N[C@@H](C)C(=O)N1[C@H](C(=O)O)C[C@@H]2CCCC[C@@H]21)C(=O)OCC [PERINDOPRIL ERBUMINE]	Compound metabolized	Compound metabolized	Compound metabolized	Compound metabolized	Compound metabolized	Compound metabolized	Compound metabolized	Compound metabolized	Compound NOT metabolized
CC#C[C@]1(O)CC[C@H]2[C@@H]3CCC4=CC(=O)CCC4=C3[C@@H](c3ccc(N(C)C)cc3)C[C@@]21C [MIFEPRISTONE]	Compound metabolized	Compound metabolized	Compound metabolized	Compound metabolized	Compound NOT metabolized	Compound metabolized	Compound metabolized	Compound metabolized	Compound NOT metabolized
CC12CC3CC(C)(C1)CC(N)(C3)C2 [MEMANTINE]	Compound NOT metabolized	Compound NOT metabolized	Compound NOT metabolized	Compound NOT metabolized	Compound NOT metabolized	Compound NOT metabolized	Compound NOT metabolized	Compound NOT metabolized	Compound NOT metabolized
C=C[C@H]1CN2CC[C@H]1C[C@H]2[C@H](O)c1ccnc2ccc(OC)cc12.C=C[C@H]1CN2CC[C@H]1C[C@H]2[C@H](O)c1ccnc2ccc(OC)cc12.O.O.O=S(=O)(O)O [QUININE SULFATE]	Compound metabolized	Compound NOT metabolized	Compound NOT metabolized	Compound metabolized	Compound NOT metabolized	Compound NOT metabolized	Compound NOT metabolized	Compound metabolized	Compound metabolized
O=C(CCCN1CCC2(CC1)C(=O)NCN2c1ccccc1)c1ccc(F)cc1 [SPIPERONE]	Compound metabolized	Compound NOT metabolized	Compound NOT metabolized	Compound metabolized	Compound NOT metabolized	Compound metabolized	Compound NOT metabolized	Compound metabolized	Compound NOT metabolized
CC(=O)OCC(CCn1cnc2cnc(N)nc21)COC(C)=O [FAMCICLOVIR]	Compound metabolized	Compound metabolized	Compound metabolized	Compound metabolized	Compound metabolized	Compound metabolized	Compound metabolized	Compound metabolized	Compound metabolized
CCc1cccc2c3c([nH]c12)C(CC)(CC(=O)O)OCC3 (stereo unspecified) [ETODOLAC]	Compound metabolized	Compound metabolized	Compound metabolized	Compound metabolized	Compound metabolized	Compound NOT metabolized	Compound metabolized	Compound metabolized	Compound metabolized
CCCC(C)(COC(N)=O)COC(=O)NC(C)C (stereo unspecified) [CARISOPRODOL]	Compound metabolized	Compound metabolized	Compound metabolized	Compound metabolized	Compound metabolized	Compound metabolized	Compound metabolized	Compound metabolized	Compound metabolized
COc1ccc(C(CN(C)C)C2(O)CCCCC2)cc1 (stereo unspecified) [VENLAFAXINE]	Compound NOT metabolized	Compound NOT metabolized	Compound NOT metabolized	Compound NOT metabolized	Compound NOT metabolized	Compound NOT metabolized	Compound NOT metabolized	Compound NOT metabolized	Compound NOT metabolized
Cc1cc(C)cc(OCC2CNC(=O)O2)c1 (stereo unspecified) [METAXALONE]	Compound metabolized	Compound metabolized	Compound metabolized	Compound metabolized	Compound metabolized	Compound metabolized	Compound metabolized	Compound metabolized	Compound metabolized
Br.COc1ccc2c(c1)[C@]13CCCC[C@@H]1[C@H](C2)N(C)CC3.O [DEXTROMETHORPHAN HYDROBROMIDE]	Compound metabolized	Compound metabolized	Compound metabolized	Compound metabolized	Compound metabolized	Compound NOT metabolized	Compound NOT metabolized	Compound metabolized	Compound metabolized
CC(C)(C)NC(=O)[C@H]1CC[C@H]2[C@@H]3CC[C@H]4NC(=O)C=C[C@]4(C)[C@H]3CC[C@]12C [FINASTERIDE]	Compound metabolized	Compound metabolized	Compound metabolized	Compound metabolized	Compound metabolized	Compound metabolized	Compound metabolized	Compound metabolized	Compound metabolized
CCN(C)C(=O)Oc1cccc([C@H](C)N(C)C)c1.O=C(O)C(O)C(O)C(=O)O [RIVASTIGMINE TARTRATE]	Compound NOT metabolized	Compound NOT metabolized	Compound NOT metabolized	Compound NOT metabolized	Compound NOT metabolized	Compound NOT metabolized	Compound NOT metabolized	Compound NOT metabolized	Compound NOT metabolized
Br.CN1CCC[C@@H]1Cc1c[nH]c2ccc(CCS(=O)(=O)c3ccccc3)cc12 [ELETRIPTAN HYDROBROMIDE]	Compound metabolized	Compound NOT metabolized	Compound metabolized	Compound NOT metabolized	Compound NOT metabolized	Compound NOT metabolized	Compound metabolized	Compound metabolized	Compound NOT metabolized
CCN(CC)CCNC(=O)c1cc(S(C)(=O)=O)ccc1OC [TIAPRIDE]	Compound metabolized	Compound NOT metabolized	Compound NOT metabolized	Compound NOT metabolized	Compound NOT metabolized	Compound NOT metabolized	Compound metabolized	Compound metabolized	Compound NOT metabolized
Cc1cc2c(s1)Nc1ccccc1N=C2N1CCN(C)CC1 [OLANZAPINE]	Compound NOT metabolized	Compound NOT metabolized	Compound NOT metabolized	Compound NOT metabolized	Compound NOT metabolized	Compound metabolized	Compound metabolized	Compound NOT metabolized	Compound metabolized
CCOC(=O)[C@H](CCc1ccccc1)N[C@@H](C)C(=O)N1CCC[C@H]1C(=O)O.O=C(O)/C=C\C(=O)O [ENALAPRIL MALEATE]	Compound NOT metabolized	Compound NOT metabolized	Compound NOT metabolized	Compound NOT metabolized	Compound NOT metabolized	Compound NOT metabolized	Compound NOT metabolized	Compound NOT metabolized	Compound NOT metabolized
COc1ccc([C@@H]2Sc3ccccc3N(CCN(C)C)C(=O)[C@@H]2OC(C)=O)cc1 [DILTIAZEM]	Compound metabolized	Compound metabolized	Compound metabolized	Compound metabolized	Compound metabolized	Compound metabolized	Compound metabolized	Compound metabolized	Compound NOT metabolized
